Laboratory results published in patent publication US6881739B1, “Use of cortisol antagonists in the treatment of heart failure” (priority 1999, dated 2005).

Tested on: heart failure
Assay: Treatment of heart failure patients with ketoconazole (case observations, Examples 1 and 2)
Assay type: in vivo, human
Description: Also, moderate dyspnea and increased heart rate as well as an increase in liver size (indicative of fluid retention in the liver). Patient being treated for heart failure with lisinopril (Zestril®) Treatment: 400 mg of a racemate of the Cis-2S,4R and Cis-2R,4S isomers of ketoconazole (Fungoral™ tablets—Janssen-Cilag, Belgium) was administered at 10.00 pm every day for a 3 month period. Observations: Body weight reduced by 3.8 kg—attributable to a reduction in fluid retention. Heart rate fell from 72 beats/min to 62 beats/min. Reduction in liver size of 10% and a resulting reduction in liver transaminases • S-ASAT reduced from 0.44 to 0.30 μKat/L • S-ALAT reduced from 1.0 to 0.39 μKat/L Dyspnea, oedema of lower limbs and body fluid in the lungs reduced. Physical health as measured by a subnormal physical exercise test (Faggiano, P. et al. supra) improved by 15%.
Patient being treated for heart failure with furosemid (40 mg/day)
Treatment: As for Example 1.

[1] = Subject 1, 400 mg daily for 3 months
[2] = Subject 2, treatment as for Example 1

CC(=O)N1CCN(c2ccc(OCC3COC(Cn4ccnc4)(c4ccc(Cl)cc4Cl)O3)cc2)CC1 (racemic) [ketoconazole]
Body weight reduced by (Subject 1 (on lisinopril), 400 mg at 10.00 pm every day for 3 months, attributable to reduced fluid retention): 3.8 kg | Dose of co-administered lisinopril (Zestril) could be reduced [1]: half of original dose | Dyspnea, oedema of lower limbs and body fluid in the lungs [1]: reduced | Physical health as measured by a subnormal physical exercise test, improved by [1]: 15% | Reduction in liver size [1]: 10% | Heart rate after treatment (Subject 1, 400 mg daily for 3 months, fell from 72 beats/min): 62 beats/min | S-ASAT after treatment (Subject 1, 400 mg daily for 3 months, reduced from 0.44): 0.30 μKat/L | S-ALAT after treatment (Subject 1, 400 mg daily for 3 months, reduced from 1.0): 0.39 μKat/L | Body weight reduced by (Subject 2 (on furosemid 40 mg/day), treatment as for Example 1): 4.2 kg | Dyspnea, oedema of lower limbs and body fluid in lungs [2]: reduced | Physical health as measured by a subnormal physical exercise test, improved by [2]: 20% | Reduction in liver size [2]: 15% | Time from commencement of treatment until furosemid could be stopped [2]: ≤ 6 weeks | Heart rate after treatment (Subject 2, treatment as for Example 1, fell from 74 beats/min): 60 beats/min | S-ASAT after treatment (Subject 2, treatment as for Example 1, reduced from 0.58): 0.32 μKat/L | S-ALAT after treatment (Subject 2, treatment as for Example 1, reduced from 0.92): 0.68 μKat/L
